In ChEMBL document CHEMBL3727350, “Agents and methods for treating ischemic and other diseases” (2014):
Active and inactive are the calls of the source. The calls are words filed in the database; no cut-off is given here.

Assays:
Mus musculus [1] = assay: Toxicity in mouse up to 150 uM, iv; format: organism-based; settings: in vivo
SW13 [2] = assay: Inhibition of cell proliferation of human SW13 cells at 10 uM incubated for 48 to 96 hrs; format: functional
[3] = biological target: Transient receptor potential cation channel subfamily M member 7 (Mus musculus) (UniProt Q923J1); assay: Inhibition of TRPM7 in mouse AML12 cells assessed as protection against oxygen glucose deprivation-induced cell death at 0.5 to 5 uM; format: cell-based
[4] = biological target: Transient receptor potential cation channel subfamily M member 7 (Mus musculus) (UniProt Q923J1); assay: Inhibition of Tet-induced Flag-tagged mouse TRPM7 expressed in HEK293 cells assessed as inhibition of channel-mediated cell death in presence of Mg2+ incubated for 24 to 48 hrs by propidium iodide uptake assay; format: cell-based; set-up: concentration or dose not given beside the values; settings: concentration not given here
[5] = biological target: Transient receptor potential cation channel subfamily M member 7 (Rattus norvegicus) (UniProt Q925B3); assay: Inhibition of TRPM7 in rat H9c2 cells assessed as protection against oxygen glucose deprivation-induced cell death at 0.05 to 5 uM; format: cell-based
[6] = biological target: Transient receptor potential cation channel subfamily M member 7 (Rattus norvegicus) (UniProt Q925B3); assay: Inhibition of TRPM7 in cultured rat retinal ganglion cells exposed to oxygen glucose deprivation condition for 3 hrs assessed as protection against TRPM7-mediated cell death at by propidium iodide uptake assay; set-up: scale not given: the % may be the effect or the level left
MDA-MB-231 [7] = assay: Inhibition of cell proliferation of human MDA-MB-231 cells at 10 uM incubated for 48 to 96 hrs; format: functional
[8] = biological target: Transient receptor potential cation channel subfamily M member 7 (Rattus norvegicus) (UniProt Q925B3); assay: Inhibition of TRPM7 in Sprague-Dawley rat retinal explants subjected to 1 hr oxygen-glucose deprivation assessed as reduction in retinal ischemia at 5 uM
[9] = biological target: Transient receptor potential cation channel subfamily M member 7 (Mus musculus) (UniProt Q923J1); assay: Inhibition of TRPM7 in mouse mouse primary cortical neurons exposed to 1 hrs oxygen glucose deprivation condition assessed as reduction in TRPM7-mediated anoxic cell death at 1.25 to 10 uM measured after 20 hrs by propidium iodide uptake assay; format: cell-based; settings: Cerebral cortex neuron
[10] = biological target: Transient receptor potential cation channel subfamily M member 7 (Rattus norvegicus) (UniProt Q925B3); assay: Inhibition of TRPM7 in rat H9C2 cells exposed to 6 hrs oxygen glucose deprivation condition followed by 2 hrs recovery assessed as reduction in TRPM7-mediated anoxic cell death at 0.05 to 5 uM by propidium iodide uptake assay; format: cell-based
Mus musculus [11] = organism: Mus musculus; assay: Inhibition of sodium channel in mouse cortical neurons assessed as effect on Na+ currents
[12] = biological target: Transient receptor potential cation channel subfamily M member 7 (Rattus norvegicus) (UniProt Q925B3); assay: Inhibition of TRPM7 in rat H9C2 cells exposed to oxygen glucose deprivation condition for 1 to 6 hrs assessed as reduction in TRPM7-mediated anoxic cell death in presence of 1 uM nifedipine by propidium iodide uptake assay; format: cell-based
HeLa [13] = assay: Inhibition of cell proliferation of human HeLa cells at 10 uM incubated for 48 to 96 hrs; format: functional
Mus musculus [14] = organism: Mus musculus; assay: Inhibition of potassium channel in mouse cortical neurons assessed as reduction in potassium currents
[15] = Inhibition of cell proliferation of human WERI cells at 10 uM incubated for 48 to 96 hrs; format: functional
[16] = biological target: Transient receptor potential cation channel subfamily M member 7 (Mus musculus) (UniProt Q923J1); assay: Inhibition of Tet-induced Flag-tagged mouse TRPM7 expressed in HEK293 cells assessed as reduction in channel currents at 0.3 to 30 uM by whole cell patch clamp assay; format: cell-based
[17] = biological target: Transient receptor potential cation channel subfamily M member 7 (Rattus norvegicus) (UniProt Q925B3); assay: Inhibition of TRPM7 in rat retinal explants exposed to oxygen glucose deprivation condition for 1 hr assessed as protection against TRPM7-mediated cell death at by propidium iodide uptake assay
[18] = biological target: Transient receptor potential cation channel subfamily M member 7 (Mus musculus) (UniProt Q923J1); assay: Inhibition of TRPM7 in mouse primary neuronal cells exposed to oxygen glucose deprivation condition for 1 to 3 hrs assessed as reduction in TRPM7-mediated anoxic cell death dosed before oxygen glucose deprivation condition by propidium iodide uptake assay; settings: Primary neuron
[19] = biological target: Transient receptor potential cation channel subfamily M member 7 (Rattus norvegicus) (UniProt Q925B3); assay: Inhibition of TRPM7 in rat H9c2 cells assessed as protection against oxygen glucose deprivation-induced cell death at 0.05 to 5 uM pre-treated for 24 hrs before OGD in presence of 1 uM nifedipine; format: cell-based
[20] = biological target: Transient receptor potential cation channel subfamily M member 7 (Rattus norvegicus) (UniProt Q925B3); assay: Inhibition of TRPM7 in rat H9C2 cells assessed as reduction in channel currents at 0.3 to 30 uM by whole cell patch clamp assay; format: cell-based
Y79 = assay: Inhibition of cell proliferation of human Y79 cells at 10 uM incubated for 48 to 96 hrs; format: functional
[21] = Inhibition of cell proliferation of mouse B16F10 cells at 10 uM incubated for 48 to 96 hrs; format: functional; settings: B16-F10
[22] = biological target: Transient receptor potential cation channel subfamily M member 7 (Rattus norvegicus) (UniProt Q925B3); assay: Inhibition of TRPM7 in rat H9c2 cells assessed as protection against oxygen glucose deprivation-induced cell death at 0.05 to 5 uM applied during OGD; format: cell-based
[23] = Inhibition of cell proliferation of mouse NIH/3T3 cells at 1.25 to 10 uM incubated for 72 hrs by propidium iodide staining assay; format: cell-based; settings: nih3t3, 72 h
[24] = biological target: Transient receptor potential cation channel subfamily M member 7 (Rattus norvegicus) (UniProt Q925B3); assay: Inhibition of TRPM7 in rat H9c2 cells assessed as protection against oxygen glucose deprivation-induced cell death at 0.05 to 5 uM in presence of 1 uM nifedipine; format: cell-based
MCF7 = assay: Inhibition of cell proliferation of human MCF7 cells at 10 uM incubated for 48 to 96 hrs; format: functional
Mus musculus [25] = organism: Mus musculus; assay: Inhibition of calcium channel in mouse cortical neurons assessed as effect on Ca2+ currents; format: functional
[26] = Inhibition of cell proliferation of mouse B16-F1 cells at 10 uM incubated for 48 to 96 hrs; format: functional
[27] = biological target: Transient receptor potential cation channel subfamily M member 7 (Mus musculus) (UniProt Q923J1); assay: Inhibition of TRPM7 in mouse primary neuronal cells exposed to oxygen glucose deprivation condition for 1 to 3 hrs assessed as reduction in TRPM7-mediated anoxic cell death dosed after oxygen glucose deprivation condition by propidium iodide uptake assay; settings: Primary neuron
[28] = biological target: Transient receptor potential cation channel subfamily M member 7 (Rattus norvegicus) (UniProt Q925B3); assay: Inhibition of TRPM7 in Sprague-Dawley rat retinal explants dissociated and subjected to 1 hr oxygen-glucose deprivation assessed as reduction in retinal cell death at 1 and 5 uM
[29] = biological target: Transient receptor potential cation channel subfamily M member 7 (Rattus norvegicus) (UniProt Q925B3); assay: Inhibition of TRPM7 in rat H9c2 cells assessed as protection against oxygen glucose deprivation-induced cell death at 0.05 to 5 uM pre-treated for 24 hrs before OGD; format: cell-based
[30] = biological target: Transient receptor potential cation channel subfamily M member 7 (Mus musculus) (UniProt Q923J1); assay: Inhibition of TRPM7 in mouse mouse primary cortical neurons exposed to 2 hrs oxygen glucose deprivation condition assessed as reduction in TRPM7-mediated anoxic cell death measured after 20 hrs by propidium iodide uptake assay; format: cell-based; settings: Cerebral cortex neuron
B16-F10 = assay: Inhibition of cell proliferation of mouse B16F10 cells at 1.25 to 10 uM incubated for 72 hrs by SRB assay; format: functional, cell-based
HeLa [31] = assay: Inhibition of cell proliferation of human HeLa cells at 1.25 to 10 uM incubated for 48 hrs by BrdU incorporation assay; format: functional, cell-based
B16-F1 = assay: Inhibition of cell proliferation of mouse B16-F1 cells at 1.25 to 10 uM incubated for 72 hrs by SRB assay; format: functional, cell-based
H9c2 [32] = assay: Toxicity against rat H9c2 cells at 5 uM; format: cell-based; settings: h9c2, 5 µM
MDA-MB-231 [33] = assay: Inhibition of cell proliferation of human MDA-MB-231 cells at 1.25 to 10 uM incubated for 72 hrs by SRB assay; format: functional, cell-based
H9c2 [34] = assay: Toxicity against rat H9c2 cells at 10 uM; format: cell-based; settings: h9c2, 10 µM
SW13 [35] = assay: Inhibition of cell proliferation of human SW13 cells at 1.25 to 10 uM incubated for 48 hrs by BrdU incorporation assay; format: functional, cell-based
SW13 [36] = assay: Inhibition of cell proliferation of human SW13 cells at 1.25 to 10 uM incubated for 72 hrs by SRB assay; format: functional, cell-based
[37] = Inhibition of cell proliferation of human DMS53 cells at 10 uM incubated for 48 to 96 hrs; format: functional; settings: DMS-53
U2OS = assay: Inhibition of cell proliferation of human U2OS cells at 10 uM incubated for 48 to 96 hrs; format: functional

Transient receptor potential cation channel subfamily M member 7 (Mus musculus), sequence (Q923J1 whole entry): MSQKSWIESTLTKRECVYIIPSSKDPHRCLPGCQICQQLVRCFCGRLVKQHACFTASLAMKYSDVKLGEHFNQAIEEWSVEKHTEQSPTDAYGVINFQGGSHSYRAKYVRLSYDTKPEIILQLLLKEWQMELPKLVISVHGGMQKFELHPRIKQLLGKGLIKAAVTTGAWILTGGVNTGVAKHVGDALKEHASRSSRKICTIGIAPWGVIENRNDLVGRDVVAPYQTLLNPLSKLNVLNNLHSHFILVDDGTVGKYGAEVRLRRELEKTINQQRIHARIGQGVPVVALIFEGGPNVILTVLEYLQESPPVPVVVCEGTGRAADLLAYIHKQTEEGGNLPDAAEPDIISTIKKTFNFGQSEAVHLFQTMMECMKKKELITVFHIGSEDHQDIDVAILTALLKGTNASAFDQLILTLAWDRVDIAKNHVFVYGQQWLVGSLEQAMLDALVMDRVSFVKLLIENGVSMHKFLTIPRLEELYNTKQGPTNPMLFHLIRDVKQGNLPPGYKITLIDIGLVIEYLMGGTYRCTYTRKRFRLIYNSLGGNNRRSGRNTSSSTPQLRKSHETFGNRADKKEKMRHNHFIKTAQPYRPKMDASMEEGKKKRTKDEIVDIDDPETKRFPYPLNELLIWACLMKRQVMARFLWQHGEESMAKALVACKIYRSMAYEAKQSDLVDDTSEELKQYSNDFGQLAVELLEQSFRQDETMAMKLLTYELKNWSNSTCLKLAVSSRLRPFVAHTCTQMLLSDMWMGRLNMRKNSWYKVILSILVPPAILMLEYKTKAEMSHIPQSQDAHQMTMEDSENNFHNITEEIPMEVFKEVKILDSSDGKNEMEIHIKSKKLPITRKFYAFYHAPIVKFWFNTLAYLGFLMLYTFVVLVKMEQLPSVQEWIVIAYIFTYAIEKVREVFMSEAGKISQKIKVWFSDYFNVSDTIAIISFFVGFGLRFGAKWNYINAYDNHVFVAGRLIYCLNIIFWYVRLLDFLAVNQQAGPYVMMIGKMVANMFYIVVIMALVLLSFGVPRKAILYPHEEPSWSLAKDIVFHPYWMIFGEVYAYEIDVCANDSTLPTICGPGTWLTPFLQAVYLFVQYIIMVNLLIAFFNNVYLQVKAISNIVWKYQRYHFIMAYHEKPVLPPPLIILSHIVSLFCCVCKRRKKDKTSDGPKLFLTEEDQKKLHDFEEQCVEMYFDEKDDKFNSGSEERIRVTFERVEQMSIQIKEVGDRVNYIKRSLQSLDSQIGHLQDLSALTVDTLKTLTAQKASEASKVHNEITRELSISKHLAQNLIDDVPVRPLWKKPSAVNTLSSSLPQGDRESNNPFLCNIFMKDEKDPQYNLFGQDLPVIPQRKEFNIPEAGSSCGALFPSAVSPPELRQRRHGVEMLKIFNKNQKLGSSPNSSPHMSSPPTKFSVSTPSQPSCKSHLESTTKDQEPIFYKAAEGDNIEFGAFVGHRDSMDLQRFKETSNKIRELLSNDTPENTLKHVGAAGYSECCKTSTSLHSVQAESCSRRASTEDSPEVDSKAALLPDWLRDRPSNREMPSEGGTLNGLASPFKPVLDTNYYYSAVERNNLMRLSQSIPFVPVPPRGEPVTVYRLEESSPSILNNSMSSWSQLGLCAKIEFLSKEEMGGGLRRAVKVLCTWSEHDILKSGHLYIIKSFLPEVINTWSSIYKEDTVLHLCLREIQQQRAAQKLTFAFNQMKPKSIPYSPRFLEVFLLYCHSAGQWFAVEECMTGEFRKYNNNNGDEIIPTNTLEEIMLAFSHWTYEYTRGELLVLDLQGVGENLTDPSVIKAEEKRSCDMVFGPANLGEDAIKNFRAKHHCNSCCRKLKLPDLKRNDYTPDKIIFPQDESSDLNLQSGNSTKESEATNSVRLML
Transient receptor potential cation channel subfamily M member 7 (Rattus norvegicus), sequence (Q925B3 whole entry): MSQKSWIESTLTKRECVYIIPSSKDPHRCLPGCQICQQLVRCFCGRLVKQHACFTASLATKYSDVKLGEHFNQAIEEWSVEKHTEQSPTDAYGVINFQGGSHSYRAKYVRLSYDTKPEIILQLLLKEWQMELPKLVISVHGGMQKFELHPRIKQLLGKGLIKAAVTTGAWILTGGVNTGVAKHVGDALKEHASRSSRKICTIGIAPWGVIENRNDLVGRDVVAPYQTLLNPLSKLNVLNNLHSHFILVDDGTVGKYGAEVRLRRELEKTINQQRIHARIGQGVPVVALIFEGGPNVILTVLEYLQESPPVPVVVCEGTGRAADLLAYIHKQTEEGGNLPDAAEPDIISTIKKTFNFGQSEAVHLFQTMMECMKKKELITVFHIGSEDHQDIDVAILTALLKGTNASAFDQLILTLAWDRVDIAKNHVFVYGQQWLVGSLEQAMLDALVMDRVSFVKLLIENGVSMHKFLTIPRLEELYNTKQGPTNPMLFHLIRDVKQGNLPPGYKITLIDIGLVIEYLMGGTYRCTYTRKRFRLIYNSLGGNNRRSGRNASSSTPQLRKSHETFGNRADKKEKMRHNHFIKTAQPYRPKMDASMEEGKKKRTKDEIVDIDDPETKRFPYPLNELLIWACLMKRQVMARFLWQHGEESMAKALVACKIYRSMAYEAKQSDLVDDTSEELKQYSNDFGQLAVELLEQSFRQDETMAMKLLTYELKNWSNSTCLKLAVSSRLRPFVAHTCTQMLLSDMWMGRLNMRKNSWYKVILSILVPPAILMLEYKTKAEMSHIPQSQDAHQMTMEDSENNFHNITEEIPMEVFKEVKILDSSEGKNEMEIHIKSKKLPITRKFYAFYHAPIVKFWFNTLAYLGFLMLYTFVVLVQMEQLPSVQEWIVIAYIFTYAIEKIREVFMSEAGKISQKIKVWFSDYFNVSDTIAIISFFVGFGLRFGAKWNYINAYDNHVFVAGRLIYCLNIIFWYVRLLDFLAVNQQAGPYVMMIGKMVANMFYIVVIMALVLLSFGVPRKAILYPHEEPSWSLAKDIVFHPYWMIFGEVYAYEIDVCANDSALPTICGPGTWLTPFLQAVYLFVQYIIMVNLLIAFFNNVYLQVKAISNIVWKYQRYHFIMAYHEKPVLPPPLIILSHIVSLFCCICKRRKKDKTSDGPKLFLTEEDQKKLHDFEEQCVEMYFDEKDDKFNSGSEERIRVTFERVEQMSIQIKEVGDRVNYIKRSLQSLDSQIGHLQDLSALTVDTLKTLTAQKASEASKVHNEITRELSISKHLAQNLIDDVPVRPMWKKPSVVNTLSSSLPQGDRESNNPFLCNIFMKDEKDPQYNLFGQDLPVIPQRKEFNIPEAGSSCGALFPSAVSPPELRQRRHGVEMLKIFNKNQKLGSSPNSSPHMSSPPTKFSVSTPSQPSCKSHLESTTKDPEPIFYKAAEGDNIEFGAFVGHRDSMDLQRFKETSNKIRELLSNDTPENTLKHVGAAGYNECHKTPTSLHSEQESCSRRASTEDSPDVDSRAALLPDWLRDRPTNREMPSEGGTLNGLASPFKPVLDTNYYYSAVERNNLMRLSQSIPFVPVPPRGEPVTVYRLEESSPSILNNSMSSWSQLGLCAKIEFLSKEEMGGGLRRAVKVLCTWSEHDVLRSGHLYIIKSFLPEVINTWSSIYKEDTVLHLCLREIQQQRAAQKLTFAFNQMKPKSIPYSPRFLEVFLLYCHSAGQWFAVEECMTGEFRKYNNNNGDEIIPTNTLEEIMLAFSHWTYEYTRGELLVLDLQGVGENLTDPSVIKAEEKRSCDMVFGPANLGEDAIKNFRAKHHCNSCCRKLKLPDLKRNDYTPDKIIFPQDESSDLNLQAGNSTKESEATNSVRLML

For `Cc1ccc2c(c1)CCCN2C(=O)c1sc2ccccc2c1Cl`, the Activity (Mus musculus [1]) was “Non-toxic”, the inhibition at 10 µM (SW13 [2]) was > 20% and the inhibition [3] was “Active”. The inhibition [4] was 80%, the inhibition [5] was “Active” and the Activity [6] was 66%. The inhibition at 10 µM (MDA-MB-231 [7]) was > 20%, the inhibition [8] was “Active” and the inhibition [9] was “Active”. The inhibition [10] was “Active”, the inhibition (Mus musculus [11]) was “inactive” and the inhibition [12] was “Active”. For the same compound, the inhibition at 10 µM (HeLa [13]) was > 20%, the inhibition (Mus musculus [14]) was “Active” and the inhibition at 10 µM [15] was > 20%. The inhibition [16] was “Active”, the inhibition [17] was “Active” and the inhibition [18] was “Active”. The inhibition [19] was “Active”, the inhibition [20] was “Active” and the inhibition at 10 µM (Y79) was > 20%. The inhibition at 10 µM [21] was > 20%, the inhibition [22] was “Active” and the Activity [23] was “Non-toxic”. The inhibition [24] was “Active”, the inhibition at 10 µM (MCF7) was > 20% and the inhibition (Mus musculus [25]) was “inactive”. For the same compound, the inhibition at 10 µM [26] was > 20%, the inhibition [27] was “Active” and the inhibition [28] was “Active”. The inhibition [29] was “Active” and the inhibition [30] was “Active”.
In the case of `Cc1ccc(-n2c(-c3ccc(Cl)c(C)c3)csc2=N)c(C)c1.Cl`, the inhibition [4] is reported as 80%, the inhibition (B16-F10) is reported as “Active” and the inhibition (HeLa [31]) is reported as “Active”. The inhibition (B16-F1) was “Active”, the Activity (H9c2 [32]) was “Non-toxic” and the inhibition at 10 µM [15] was > 20%. The inhibition [16] was “Active”, the inhibition [18] was “Active” and the inhibition [20] was “Active”. For the same compound, the inhibition (MDA-MB-231 [33]) was “Active”, the Activity (H9c2 [34]) was “Toxic” and the Activity [23] was “Non-toxic”. For the same compound, the inhibition (SW13 [35]) was “Active”, the inhibition [27] was “Active” and the inhibition (SW13 [36]) was “Active”. The inhibition [30] was “Active”.
With `O=C(Nc1ccc(F)cc1)C(Sc1ccc(Cl)cc1)c1ccccc1` (stereo not drawn) the inhibition at 10 µM (SW13 [2]) was > 20%, the inhibition [4] was 80% and the inhibition (B16-F10) was “Active”. The Activity [6] was 66%, the inhibition at 10 µM (MDA-MB-231 [7]) was > 20% and the inhibition [8] was “Active”. For the same compound, the inhibition (B16-F1) was “Active”, the Activity (H9c2 [32]) was “Non-toxic” and the inhibition (Mus musculus [11]) was “inactive”. The inhibition [12] was “Active”, the inhibition at 10 µM (HeLa [13]) was > 20% and the inhibition (Mus musculus [14]) was “Active”. The inhibition [16] was “Active”, the inhibition [17] was “Active” and the inhibition [18] was “Active”. For the same compound, the inhibition [20] was “Active”, the inhibition (MDA-MB-231 [33]) was “Active” and the inhibition at 10 µM (Y79) was > 20%. The inhibition at 10 µM [21] was > 20%, the Activity (H9c2 [34]) was “Toxic” and the Activity [23] was “Non-toxic”. For the same compound, the inhibition at 10 µM (MCF7) was > 20%, the inhibition (Mus musculus [25]) was “inactive” and the inhibition at 10 µM [37] was > 20%. The inhibition at 10 µM (U2OS) was > 20%, the inhibition at 10 µM [26] was > 20% and the inhibition [27] was “Active”. The inhibition [28] was “Active”, the inhibition (SW13 [36]) was “Active” and the inhibition [30] was “Active”.
